Experimental data published in publication PMC2364625, “Characterization and site-directed mutagenesis of Wzb, an O-phosphatase from Lactobacillus rhamnosus” (BMC Biochemistry, 2008).

Assays:
Wzb [1] = target: T1, Wzb (Lacticaseibacillus rhamnosus, UniProt Q58Z13); assay: pNPP hydrolysis, absorbance at […] nm; assay type: biochemical; details: 2.5 mM pNPP; MES-HEPES, 1% BSA; Cu2+ essential, Co2+ stimulates; optimum pH 7.3, 75 °C
T1 construct: 6His-tagged fusion, pQE30 (pGL387, wzb ORF in SacI-KpnI), E. coli NM522, purified under urea and renatured on Ni-NTA, 27 kDa; tag not reported as cut; forward primer starts at codon 2 (Ile)
T1 sequence (Q58Z13 2-254): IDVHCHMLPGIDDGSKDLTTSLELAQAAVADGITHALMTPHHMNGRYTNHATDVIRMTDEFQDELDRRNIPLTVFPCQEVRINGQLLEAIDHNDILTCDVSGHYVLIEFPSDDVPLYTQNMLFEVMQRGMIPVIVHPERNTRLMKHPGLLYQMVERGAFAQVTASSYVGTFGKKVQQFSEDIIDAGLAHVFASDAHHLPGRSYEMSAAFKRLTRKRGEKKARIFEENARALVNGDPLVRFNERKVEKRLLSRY

Wzb [2] = target: T1, Wzb; assay: pNPP hydrolysis, absorbance at […] nm; assay type: biochemical; details: inhibitor; increasing inhibition from 1 mM to 100 mM, no residual activity at 100 mM (data not shown); substrate pNPP

SMILES | pNPP hydrolysis, absorbance at 405 nm (Wzb [1]) | inhibition (Wzb [2])
O=[N+]([O-])c1ccc(OP(=O)(O)O)cc1 [p-nitrophenyl-phosphate] | The purified Wzb fusion protein was active on p-nitrophenyl-phosphate (pNPP) | –
[O]=[V]([OH])([OH])[OH] [sodium orthovanadate] | – | Wzb activity on pNPP was inhibited by sodium orthovanadate (Na3VO4)
